# Legend:
# [1] = test system: HCV replicon (Genotype 1b); experiment: Luciferase genotype 1b replicon potency assay; conditions: Hepatitis C virus, GETYPE1B, read-out: IC50 μM, HCV genotype 1b luciferase replicon, Renilla luciferase reporter
# in vitro = conditions: human
SMILES,IC50 [1] [µM],CC50 (in vitro) [µM]
"CSc1nc(N)nc2c1ncn2C1O[C@H](COP(=O)(N[C@@H](C)C(=O)O[C@@H](C)c2ccccc2)Oc2cccc3ccccc23)[C@@H](O)[C@@]1(C)O (stereo partly drawn) [Example 89, (2S)-((S)-1-phenylethyl) 2-((((2R,3R,4R)-5-(2-amino-6-(methylthio)-9H-purin-9-yl)-3,4-dihydroxy-4-methyltetrahydrofuran-2-yl)methoxy)(naphthalen-1-yloxy)phosphorylamino)propanoate]",0.14,27
"COc1nc(N)nc2c1ncn2C1O[C@H](COP(=O)(N[C@H](C(=O)OCc2ccc(F)cc2F)C(C)C)Oc2ccc3ncccc3c2)[C@@H](O)[C@@]1(C)O (stereo partly drawn) [Example 51, (2S)-2,4-difluorobenzyl 2-((((2R,3R,4R)-5-(2-amino-6-methoxy-9H-purin-9-yl)-3,4-dihydroxy-4-methyltetrahydrofuran-2-yl)methoxy)(quinolin-6-yloxy)phosphorylamino)-3-methylbutanoate]",0.11,> 100
"COc1nc(N)nc2c1ncn2C1O[C@H](COP(=O)(N[C@@H](C)C(=O)OCC(C)(C)C)Oc2cccc3ncccc23)[C@@H](O)[C@@]1(C)O (stereo partly drawn) [Example 31, (2S)-neopentyl 2-((((2R,3R,4R)-5-(2-amino-6-methoxy-9H-purin-9-yl)-3,4-dihydroxy-4-methyltetrahydrofuran-2-yl)methoxy)(quinolin-5-yloxy)phosphorylamino)propanoate]",0.19,> 100
"C[C@H](NP(=O)(OC[C@H]1OC(n2cnc3c(NCCc4ccccc4)nc(N)nc32)[C@](C)(O)[C@@H]1O)Oc1cccc2ccccc12)C(=O)OCC(C)(C)C (stereo partly drawn) [Example 87, (2S)-neopentyl 2-((((2R,3R,4R)-5-(2-amino-6-(phenethylamino)-9H-purin-9-yl)-3,4-dihydroxy-4-methyltetrahydrofuran-2-yl)methoxy)(naphthalen-1-yloxy)phosphorylamino)propanoate]",0.27,42
"CCOc1nc(N)nc2c1ncn2C1O[C@H](COP(=O)(N[C@@H](C)C(=O)OC(C)C)Oc2cccc3ccccc23)[C@@H](O)[C@@]1(C)O (stereo partly drawn) [Example 77, (2S)-isopropyl 2-((((2R,3R,4R)-5-(2-amino-6-ethoxy-9H-purin-9-yl)-3,4-dihydroxy-4-methyltetrahydrofuran-2-yl)methoxy)(naphthalen-1-yloxy)phosphorylamino)propanoate]",0.11,40
"CCOc1nc(N)nc2c1ncn2C1O[C@H](COP(=O)(N[C@H](C(=O)OCC(C)(C)C)C(C)C)Oc2cccc3ccccc23)[C@@H](O)[C@@]1(C)O (stereo partly drawn) [Example 79, (2S)-neopentyl 2-((((2R,3R,4R)-5-(2-amino-6-ethoxy-9H-purin-9-yl)-3,4-dihydroxy-4-methyltetrahydrofuran-2-yl)methoxy)(naphthalen-1-yloxy)phosphorylamino)-3-methylbutanoate]",0.22,24
"COc1nc(N)nc2c1ncn2C1O[C@H](COP(=O)(N[C@@H](C)C(=O)O[C@@H](C)c2ccccc2)Oc2cccc3ccccc23)C[C@@]1(C)O (stereo partly drawn) [Example 96, (2S)-((S)-1-phenylethyl) 2-((((2S,4R)-5-(2-amino-6-methoxy-9H-purin-9-yl)-4-hydroxy-4-methyltetrahydrofuran-2-yl)methoxy)(naphthalen-1-yloxy)phosphorylamino)propanoate]",> 10,20
"COc1nc(N)nc2c1ncn2C1O[C@H](COP(=O)(N[C@H](C(=O)OCC(C)(C)C)C(C)C)Oc2cccc3ncccc23)[C@@H](O)[C@@]1(C)O (stereo partly drawn) [Example 50, (2S)-neopentyl 2-((((2R,3R,4R)-5-(2-amino-6-methoxy-9H-purin-9-yl)-3,4-dihydroxy-4-methyltetrahydrofuran-2-yl)methoxy)(quinolin-5-yloxy)phosphorylamino)-3-methylbutanoate]",0.55,> 100
"COc1nc(N)nc2c1ncn2C1O[C@H](COP(=O)(N[C@@H](C)C(=O)OCC(C)C)Oc2cccc3ccccc23)[C@@H](O)[C@@]1(C)O (stereo partly drawn) [Example 19, (2S)-isobutyl 2-((((2R,3R,4R)-5-(2-amino-6-methoxy-9H-purin-9-yl)-3,4-dihydroxy-4-methyltetrahydrofuran-2-yl)methoxy)(naphthalen-1-yloxy)phosphorylamino)propanoate]",0.037,14
"COc1nc(N)nc2c1ncn2C1O[C@H](COP(=O)(N[C@@H](C)C(=O)OCC(C)(C)C)Oc2ccccc2)[C@@H](O)[C@@]1(C)O (stereo partly drawn) [Example 35, (2S)-neopentyl 2-((((2R,3R,4R)-5-(2-amino-6-methoxy-9H-purin-9-yl)-3,4-dihydroxy-4-methyltetrahydrofuran-2-yl)methoxy)(phenoxy)phosphorylamino)propanoate]",0.049,38
COc1nc(N)nc2c1ncn2C1O[C@H](CO[P@@](=O)(N[C@@H](C)C(=O)OCC(C)(C)C)Oc2cccc3ccccc23)[C@@H](O)[C@@]1(C)O (stereo partly drawn) [Example 21],0.043,13
"COc1nc(N)nc2c1ncn2C1O[C@H](COP(=O)(N[C@@H](C)C(=O)OC2CCCCC2)Oc2cccc3ccccc23)C[C@@]1(C)O (stereo partly drawn) [Example 98, (2S)-cyclohexyl 2-((((2S,4R)-5-(2-amino-6-methoxy-9H-purin-9-yl)-4-hydroxy-4-methyltetrahydrofuran-2-yl)methoxy)(naphthalen-1-yloxy)phosphorylamino)propanoate]",> 10,20
"COc1nc(N)nc2c1ncn2C1O[C@H](COP(=O)(N[C@H](C(=O)OCc2ccc(F)cc2F)C(C)C)Oc2cccc3ncccc23)[C@@H](O)[C@@]1(C)O (stereo partly drawn) [Example 49, (2S)-2,4-difluorobenzyl 2-((((2R,3R,4R)-5-(2-amino-6-methoxy-9H-purin-9-yl)-3,4-dihydroxy-4-methyltetrahydrofuran-2-yl)methoxy)(quinolin-5-yloxy)phosphorylamino)-3-methylbutanoate]",0.17,> 100
COc1nc(N)nc2c1ncn2C1O[C@H](COP(=O)(N[C@H](C(=O)OCc2ccccc2)c2ccccc2)Oc2cccc3ccccc23)[C@@H](O)[C@@]1(C)O (stereo partly drawn) [Example 63],0.028,50
"CCOc1nc(N)nc2c1ncn2C1O[C@H](COP(=O)(N[C@@H](C)C(=O)OCc2ccc(F)cc2F)Oc2cccc3ccccc23)[C@@H](O)[C@@]1(C)O (stereo partly drawn) [Example 74, (2S)-2,4-difluorobenzyl 2-((((2R,3R,4R)-5-(2-amino-6-ethoxy-9H-purin-9-yl)-3,4-dihydroxy-4-methyltetrahydrofuran-2-yl)methoxy)(naphthalen-1-yloxy)phosphorylamino)propanoate]",0.034,17
"COc1nc(N)nc2c1ncn2C1O[C@H](COP(=O)(N[C@@H](C)C(=O)OC2CCCC2)Oc2cccc3ccccc23)[C@@H](O)[C@@]1(C)O (stereo partly drawn) [Example 24, (2S)-cyclopentyl 2-((((2R,3R,4R)-5-(2-amino-6-methoxy-9H-purin-9-yl)-3,4-dihydroxy-4-methyltetrahydrofuran-2-yl)methoxy)(naphthalen-1-yloxy)phosphorylamino)propanoate]",0.02,9
"COc1nc(N)nc2c1ncn2C1O[C@H](COP(=O)(N[C@@H](C)C(=O)OC2CCCCC2)Oc2cccc3ccccc23)[C@@H](O)[C@@]1(C)O (stereo partly drawn) [Example 25, (2S)-cyclohexyl 2-((((2R,3R,4R)-5-(2-amino-6-methoxy-9H-purin-9-yl)-3,4-dihydroxy-4-methyltetrahydrofuran-2-yl)methoxy)(naphthalen-1-yloxy)phosphorylamino)propanoate]",0.014,6
"COc1nc(N)nc2c1ncn2C1O[C@H](COP(=O)(N[C@@H](C(=O)OC2CCCCC2)c2ccccc2)Oc2cccc3ccccc23)[C@@H](O)[C@@]1(C)O (stereo partly drawn) [Example 71, (2R)-cyclohexyl 2-((((2R,3R,4R)-5-(2-amino-6-methoxy-9H-purin-9-yl)-3,4-dihydroxy-4-methyltetrahydrofuran-2-yl)methoxy)(naphthalen-1-yloxy)phosphorylamino)-2-phenylacetate]",2.5,26
"COc1nc(N)nc2c1ncn2C1O[C@H](COP(=O)(N[C@@H](C)C(=O)OCc2ccccc2)Oc2cccc3ccccc23)C[C@@]1(C)O (stereo partly drawn) [Example 95, (2S)-benzyl 2-((((2S,4R)-5-(2-amino-6-methoxy-9H-purin-9-yl)-4-hydroxy-4-methyltetrahydrofuran-2-yl)methoxy)(naphthalen-1-yloxy)phosphorylamino)propanoate]",0.9,70
"CCOc1nc(N)nc2c1ncn2C1O[C@H](COP(=O)(N[C@@H](C)C(=O)O[C@@H](C)c2ccccc2)Oc2cccc3ccccc23)[C@@H](O)[C@@]1(C)O (stereo partly drawn) [Example 75, (2S)-((S)-1-phenylethyl) 2-((((2R,3R,4R)-5-(2-amino-6-ethoxy-9H-purin-9-yl)-3,4-dihydroxy-4-methyltetrahydrofuran-2-yl)methoxy)(naphthalen-1-yloxy)phosphorylamino)propanoate]",0.063,12
CCC(C)[C@H](NP(=O)(OC[C@H]1OC(n2cnc3c(OC)nc(N)nc32)[C@](C)(O)[C@@H]1O)Oc1cccc2ccccc12)C(=O)OCC(C)(C)C (stereo partly drawn) [Example 62],0.86,18
"COc1nc(N)nc2c1ncn2C1O[C@H](COP(=O)(N[C@@H](C)C(=O)OC2Cc3ccccc3C2)Oc2cccc3ccccc23)[C@@H](O)[C@@]1(C)O (stereo partly drawn) [Example 16, (2S)-2,3-dihydro-1H-inden-2-yl 2-((((2R,3R,4R)-5-(2-amino-6-methoxy-9H-purin-9-yl)-3,4-dihydroxy-4-methyltetrahydrofuran-2-yl)methoxy) (naphthalen-1-yloxy)phosphorylamino)propanoate]",0.027,11
COc1nc(N)nc2c1ncn2C1O[C@H](COP(=O)(N[C@H](C(=O)OCC(C)(C)C)c2ccccc2)Oc2cccc3ccccc23)[C@@H](O)[C@@]1(C)O (stereo partly drawn) [Example 66],0.032,19
C[C@H](NP(=O)(OC[C@H]1OC(n2cnc3c(NCc4ccccc4)nc(N)nc32)[C@](C)(O)[C@@H]1O)Oc1cccc2ccccc12)C(=O)OCC(C)(C)C (stereo partly drawn) [Example 85],0.58,15

# Source: patent US8759318B2, “Phosphoramidate derivatives of guanosine nucleoside compounds for treatment of viral infections” (Inhibitex, Inc., priority 2009, dated 2014)
